According to PMC11879040, “Advancing systemic toxicity risk assessment: Evaluation of a NAM-based toolbox approach” (Toxicological Sciences, 2024):
Where two headings read alike, the source gives them in different places.

Columns and labels:
rat = settings: cited from earlier work; for PoD (NOAEL): rat, ref ToxRefDB/Paul-Friedman et al. (2020)/regulatory opinions
[1] = target: T1, Adenosine receptor A2a, ADORA2A (h) (Homo sapiens, UniProt P29274); assay: IPP ADORA2A binding (agonist radioligand); settings: IPP screening at 100 uM; control NECA
T1 construct: purchased Eurofins Cerep (SafetyScreen44-based IPP panel)

[2] = test system: Thyroid hormone receptor alpha, THRA (h); assay: IPP THRA coactivator recruitment (agonist); type: biochemical, human; settings: 100 uM; agonist; T3; * denotes assay interference (2-Amino-6-chloro-4-nitrophenol, HC Red 3)
[3] = target: Potassium voltage-gated channel subfamily H member 2 hERG, KCNH2 (h) (Homo sapiens, UniProt Q12809); settings: human, 100 µM
MCF7 cells = assay: High-throughput transcriptomics (HTTr, TempO-Seq), MCF7, 24 h; type: cell-based, human; settings: MCF-7; for pod_httr_bifrost PoD: HTTr BIFROST PoD; for podl_path_minbmd PoD: HTTr minimum pathway BMD(L)
Description: (§1) HepG2, HepaRG, and MCF7 cells were treated with each compound for 24 h across a dose range of 7 concentrations and lysed using TempO-Seq lysis buffer (BioSpyder Technologies, proprietary kit, see [Middleton et al. 2022] for method details). Sequencing was performed using TempO-Seq (BioClavis) version 2 of the human whole transcriptome panel and analyzed as described previously in Middleton et al.

[4] = test system: Glutamate receptor ionotropic NMDA 1 non-selective, GRIN1 (r)
HepaRG cells = assay: High-throughput transcriptomics (HTTr, TempO-Seq), HepaRG, 24 h; type: cell-based, human; settings: HepaRG; for pod_httr_bifrost PoD: HTTr BIFROST PoD; for podl_path_minbmd PoD: HTTr minimum pathway BMD(L)
Description: as §1

[5] = test system: Sodium channel protein type 5 subunit alpha (site 2), SCN5A (r); type: binding, rat; settings: IPP screening at 100 uM; control veratridine
Tubulin (r) = assay: IPP Tubulin binding; design: species or system rat; settings: 100 uM; ligand/control Colchicine
[6] = test system: Potassium Voltage-Gated Channel Kv non-selective, KCNQ1 (r); assay: IPP KCNQ1 binding (antagonist radioligand); design: species or system rat; settings: IPP screening at 100 uM; control α-dendrotoxin
[7] = human
HepG2 cells [8] = assay: High-throughput transcriptomics (HTTr, TempO-Seq), HepG2, 24 h; type: cell-based, human; settings: HepG2; for pod_httr_bifrost PoD: HTTr BIFROST PoD; for podl_path_minbmd PoD: HTTr minimum pathway BMD(L)
Description: as §1

[9] = test system: Gamma-aminobutyric acid receptor subunit alpha-1 BZD site, GABRA1A (r); type: binding, rat
[10] = target: T2, Estrogen receptor, ER1 (h) (Homo sapiens, UniProt P03372); assay: IPP ER1 coactivator recruitment (agonist); type: biochemical; settings: 100 uM, estriol, * denotes assay interference (2-Amino-6-chloro-4-nitrophenol, HC Red 3)
T2 construct: purchased Eurofins Cerep (SafetyScreen44-based IPP panel)
T2 sequence (P03372 1-595): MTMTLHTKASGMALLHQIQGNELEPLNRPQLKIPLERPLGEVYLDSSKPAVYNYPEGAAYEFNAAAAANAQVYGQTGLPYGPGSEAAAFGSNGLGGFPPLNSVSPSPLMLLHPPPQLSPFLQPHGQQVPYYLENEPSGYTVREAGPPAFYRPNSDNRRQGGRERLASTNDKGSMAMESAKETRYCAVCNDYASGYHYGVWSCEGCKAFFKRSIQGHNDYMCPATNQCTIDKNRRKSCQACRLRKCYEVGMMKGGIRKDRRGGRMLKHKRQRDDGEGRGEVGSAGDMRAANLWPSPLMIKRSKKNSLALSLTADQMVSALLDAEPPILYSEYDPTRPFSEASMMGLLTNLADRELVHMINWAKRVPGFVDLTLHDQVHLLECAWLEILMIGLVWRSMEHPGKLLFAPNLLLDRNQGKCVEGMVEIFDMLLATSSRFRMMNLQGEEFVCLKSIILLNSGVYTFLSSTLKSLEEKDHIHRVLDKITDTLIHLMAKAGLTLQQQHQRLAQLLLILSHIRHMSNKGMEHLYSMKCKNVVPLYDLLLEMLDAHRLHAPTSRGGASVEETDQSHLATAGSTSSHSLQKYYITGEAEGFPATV

[11] = target: T2, Estrogen receptor, ER1 (h); assay: IPP ER1 coactivator recruitment (antagonist); type: biochemical; settings: 100 uM, estriol, * denotes assay interference (2-Amino-6-chloro-4-nitrophenol, HC Red 3)
HepG2 cells [12] = assay: Cell stress panel (CSP), 24 h, 8 concentrations, BIFROST global PoD; type: cell-based; settings: HepG2; cell stress panel PoD
Description: Compounds were tested using the previously developed cell stress panel ([Hatherell et al. 2020]) and the expanded biomarker panel outlined in Middleton et al. HepG2 cells were treated with all compounds for 24 h across 8 concentrations prior to biomarker analysis. The same plate layout and number of replicates (3 biological and 2 technical) were used as previously for each assay within the panel.

[13] = test system: 63 targets with known safety liabilities; assay: In vitro pharmacological profiling (IPP) panel, screening at 10 or 100 µM and dose response, minimum IC50/AC50; type: biochemical; settings: lowest AC50 across IPP panel (systemic targets); cell_type -; read-out: ipp_lowest_ac50_systemic PoD
[14] = PBK level L2; taken or scaled from references (median where several); ref [6],[7],[10],[19]; cited from earlier work
[15] = skin penetration (PBK input); settings: PBK level L2, [28] (ibuprofen)
[16] = PBK level L2; single value or median; ref [2],[4],[6],[7],[8],[10],[11],[15],[18],[27],[34]; cited from earlier work
[17] = cited from earlier work
[18] = IPP screening at 100 uM, control CGS 19755
[19] = IPP screening at 100 uM, control diazepam
[20] = neurological effects, ref SCCS/1582/16
[21] = optimised based on [21] (glutaraldehyde), [23] (HCRed3)
[22] = IV bolus 391 mg, healthy 2 male 3 female, calibration, ref Pentikäinen et al. 1979
[23] = IV infusion 195 mg, 4 healthy male, validation, ref Tucker et al. 1981
[24] = Oral 391 mg (IR: Tablet), fasted, healthy 2 male 3 female, calibration, ref Pentikäinen et al. 1979
[25] = Oral 391 mg (IR: Tablet), fed, healthy 12 male 4 female, validation, ref Tucker et al. 1981

T1 sequence (P29274 whole entry): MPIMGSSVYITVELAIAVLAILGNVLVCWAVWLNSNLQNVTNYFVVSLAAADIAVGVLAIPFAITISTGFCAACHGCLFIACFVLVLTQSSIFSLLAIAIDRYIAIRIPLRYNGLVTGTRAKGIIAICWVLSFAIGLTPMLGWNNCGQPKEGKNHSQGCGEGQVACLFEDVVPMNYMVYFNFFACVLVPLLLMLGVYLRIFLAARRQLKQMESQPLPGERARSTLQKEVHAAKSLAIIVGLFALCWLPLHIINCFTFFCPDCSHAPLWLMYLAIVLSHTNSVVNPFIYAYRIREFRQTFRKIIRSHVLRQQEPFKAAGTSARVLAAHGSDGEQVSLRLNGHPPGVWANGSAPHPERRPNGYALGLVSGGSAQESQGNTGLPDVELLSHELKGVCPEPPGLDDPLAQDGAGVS
Chain of Potassium voltage-gated channel subfamily H member 2 hERG, KCNH2 (h) (Q12809 whole entry): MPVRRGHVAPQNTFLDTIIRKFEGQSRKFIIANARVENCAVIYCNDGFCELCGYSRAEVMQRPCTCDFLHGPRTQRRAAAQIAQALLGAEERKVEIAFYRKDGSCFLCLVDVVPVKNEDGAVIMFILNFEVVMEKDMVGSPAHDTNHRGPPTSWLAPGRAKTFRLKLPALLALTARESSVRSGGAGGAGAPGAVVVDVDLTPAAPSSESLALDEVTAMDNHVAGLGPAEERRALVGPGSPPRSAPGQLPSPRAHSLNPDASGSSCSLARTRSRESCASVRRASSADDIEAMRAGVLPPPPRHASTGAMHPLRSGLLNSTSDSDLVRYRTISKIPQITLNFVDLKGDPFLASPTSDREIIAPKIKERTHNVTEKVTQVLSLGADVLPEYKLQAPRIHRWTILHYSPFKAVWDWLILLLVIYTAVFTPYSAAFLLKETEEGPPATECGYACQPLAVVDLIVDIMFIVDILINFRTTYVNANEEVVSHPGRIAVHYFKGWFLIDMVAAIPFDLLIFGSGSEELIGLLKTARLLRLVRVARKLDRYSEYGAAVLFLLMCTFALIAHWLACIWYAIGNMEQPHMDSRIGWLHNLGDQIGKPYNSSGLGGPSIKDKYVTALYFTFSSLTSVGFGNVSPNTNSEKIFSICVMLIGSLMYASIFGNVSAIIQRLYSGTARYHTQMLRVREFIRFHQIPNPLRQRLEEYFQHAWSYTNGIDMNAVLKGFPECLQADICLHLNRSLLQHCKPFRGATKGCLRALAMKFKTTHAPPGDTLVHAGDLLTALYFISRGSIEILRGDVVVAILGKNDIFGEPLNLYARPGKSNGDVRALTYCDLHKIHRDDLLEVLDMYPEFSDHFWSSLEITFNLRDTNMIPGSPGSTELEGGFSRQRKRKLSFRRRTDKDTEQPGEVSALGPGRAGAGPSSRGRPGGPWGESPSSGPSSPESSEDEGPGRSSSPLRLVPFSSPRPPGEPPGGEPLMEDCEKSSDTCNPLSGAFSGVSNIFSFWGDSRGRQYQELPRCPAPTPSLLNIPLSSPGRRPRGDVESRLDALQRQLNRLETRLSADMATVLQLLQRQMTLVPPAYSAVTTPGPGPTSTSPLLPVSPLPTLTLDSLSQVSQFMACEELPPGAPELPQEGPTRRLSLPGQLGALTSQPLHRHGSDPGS

CCCCCCC(O)CO (stereo not drawn) [1,2-Octanediol, Octane-1,2-diol]
PoD (NOAEL) (rat; developmental): 150 mg/kg bw/day
Specific binding [1]: 1.4%
IPP screening %, Coactivator recruitment [2]: 2.0%
IPP screening %, Specific binding [3]: 14.6%
pod_httr_bifrost PoD (MCF7 cells): 48.9281 µM
podl_path_minbmd PoD (MCF7 cells): 968.894 µM
Specific binding [4, 18]: 3.1%
pod_httr_bifrost PoD (HepaRG cells): 103.989 µM
podl_path_minbmd PoD (HepaRG cells): 259.271 µM
Specific binding [5]: 26.3%
IPP screening %, Specific binding (Tubulin (r)): 3.0%
Specific binding [6]: -4.4%
risk [7]: 0
pod_httr_bifrost PoD (HepG2 cells [8]): 108.846 µM
podl_path_minbmd PoD (HepG2 cells [8]): 1029.23 µM
Specific binding [9, 19]: 10.0%
IPP screening %, Coactivator recruitment [10]: 0.0%
IPP screening %, Coactivator recruitment [11]: 0.0%
pod_cell_stress PoD (HepG2 cells [12]): 272.296 µM

Cc1c(O)cccc1O [2-methyl-1,3-benzenediol, 2-Methylbenzene-1,3-diol]
NOAEL (rat; 90-day study, body weight changes to rats, ref [3,4]): 100 mg/kg bw/day
PoD (NOAEL) (rat; 90 day oral rat study): 100 mg/kg bw/day
NOAEL for teratogenicity and maternal toxicity (rat; ref [3,4]): 400 mg/kg bw/day
Specific binding [1]: 8.4%
IPP screening %, Coactivator recruitment [2]: 2.0%
IPP screening %, Specific binding [3]: 3.3%
pod_httr_bifrost PoD (MCF7 cells): 1.165 µM
podl_path_minbmd PoD (MCF7 cells): 52.4925 µM
Specific binding [4, 18]: 1.8%
pod_httr_bifrost PoD (HepaRG cells): 22.9719 µM
podl_path_minbmd PoD (HepaRG cells): 117.879 µM
Specific binding [5]: 41.6%
IPP screening %, Specific binding (Tubulin (r)): -14.0%
Specific binding [6]: 27.5%
risk [7]: 0
pod_httr_bifrost PoD (HepG2 cells [8]): 0.2182 µM
podl_path_minbmd PoD (HepG2 cells [8]): 169.35 µM
Specific binding [9, 19]: 6.5%
IPP screening %, Coactivator recruitment [10]: 13.0%
IPP screening %, Coactivator recruitment [11]: -6.0%
AC50 [13]: 900 nM
pod_cell_stress PoD (HepG2 cells [12]): 8.64 µM

CCOc1cc(CCC(C)=O)ccc1O [Ethylzingerone, 4-(3-Ethoxy-4-hydroxyphenyl)butan-2-one]
local NOAEL (rat; 90 day oral rat study, ref SCCS/1582/16): 300 mkd
BMD (rat; [20]): 220 mkd
BMDL (rat; [20]): 110 mkd
PoD (NOAEL) (rat; 90 day oral rat study): 100 mg/kg bw/day
Specific binding [1]: 4.5%
IPP screening %, Coactivator recruitment [2]: 4.0%
IPP screening %, Specific binding [3]: 0.2%
pod_httr_bifrost PoD (MCF7 cells): 11.821 µM
podl_path_minbmd PoD (MCF7 cells): 119.724 µM
Specific binding [4, 18]: -16.9%
pod_httr_bifrost PoD (HepaRG cells): 29.321 µM
podl_path_minbmd PoD (HepaRG cells): 291.446 µM
Specific binding [5]: 8.8%
IPP screening %, Specific binding (Tubulin (r)): 16.0%
Specific binding [6]: 0.7%
risk [7]: 0
pod_httr_bifrost PoD (HepG2 cells [8]): 11.971 µM
podl_path_minbmd PoD (HepG2 cells [8]): 445.376 µM
Specific binding [9, 19]: -2.5%
IPP screening %, Coactivator recruitment [10]: 2.0%
IPP screening %, Coactivator recruitment [11]: -14.0%
AC50 [13]: 1390 nM
pod_cell_stress PoD (HepG2 cells [12]): 17.0917 µM

Nc1ccc(NCCO)c([N+](=O)[O-])c1 [HCRed3]
Intrinsic Liver Clearance [14]: 248.1 L/h
Diffusivity Dermis [15, 21]: 1.00E-08 cm^2/s
Diffusivity Stratum Corneum [15, 21]: 1.00E-08 cm^2/s
Diffusivity Viable Epidermis [15, 21]: 1.00E-10 cm^2/s
Partition Coefficient Stratum Corneum/Water ([15]; optimised based on [21] (glutaraldehyde), [23] (HCRed3), no reference printed (DEET)): 1.50
Diffusivity Vehicle ([15]; optimised based on [23] (HCRed3)): 1.00E-05 cm^2/s
Fup [16]: 62.28%

CN(C)C(=N)N=C(N)N [Metformin, N,N-Dimethyltriimidodicarbonic diamide]
Reported AUC0-t [17, 22]: 23529 ng·h/mL
Reported cmax [17, 22]: 47.318 µg/mL
Reported tmax [17, 22]: 4.2 min
Reported AUC0-t [17, 23]: 8905.5 ng·h/mL
Reported cmax [17, 23]: 8.93 µg/mL
Reported tmax [17, 23]: 0 min
Reported AUC0-t [17, 24]: 10696 ng·h/mL
Reported cmax [17, 24]: 3.1615 µg/mL
Reported tmax [17, 24]: 43.11 min
Reported AUC0-t [17, 25]: 11234 ng·h/mL
Reported cmax [17, 25]: 2 µg/mL
Reported tmax [17, 25]: 104 min
Specific binding [1]: -1.4%
IPP screening %, Coactivator recruitment [2]: 4.0%
pod_httr_bifrost PoD (MCF7 cells): 45.2765 µM
podl_path_minbmd PoD (MCF7 cells): 722.808 µM
Specific binding [4]: -9.9%
pod_httr_bifrost PoD (HepaRG cells): 80.527 µM
podl_path_minbmd PoD (HepaRG cells): 386.965 µM
IPP screening %, Specific binding (Tubulin (r)): 14.0%
risk [7]: 1
pod_httr_bifrost PoD (HepG2 cells [8]): 107.11 µM
podl_path_minbmd PoD (HepG2 cells [8]): 592.816 µM
Specific binding [9]: 0.6%
pod_cell_stress PoD (HepG2 cells [12]): 133.042 µM
